Measurements: US11020397B2, “Compounds and their use for reducing uric acid levels” (Acquist LLC, priority 2016, dated 2021)
pIC50: −log10 of the molar value. Where two headings read alike, the source gives them in different places.

Biological target: Xanthine oxidase (Homo sapiens (Human), UniProt P47989)
Experiment: Fluorescence-based xanthine oxidase activity assay
Format: biochemical
Conditions: for IC50: unit nM, read-out: Xanthine Oxidase IC50; for Xanthine oxidase inhibition, verbal rating: compared to allopurinol

Xanthine oxidase, sequence (P47989 whole entry, species assumed): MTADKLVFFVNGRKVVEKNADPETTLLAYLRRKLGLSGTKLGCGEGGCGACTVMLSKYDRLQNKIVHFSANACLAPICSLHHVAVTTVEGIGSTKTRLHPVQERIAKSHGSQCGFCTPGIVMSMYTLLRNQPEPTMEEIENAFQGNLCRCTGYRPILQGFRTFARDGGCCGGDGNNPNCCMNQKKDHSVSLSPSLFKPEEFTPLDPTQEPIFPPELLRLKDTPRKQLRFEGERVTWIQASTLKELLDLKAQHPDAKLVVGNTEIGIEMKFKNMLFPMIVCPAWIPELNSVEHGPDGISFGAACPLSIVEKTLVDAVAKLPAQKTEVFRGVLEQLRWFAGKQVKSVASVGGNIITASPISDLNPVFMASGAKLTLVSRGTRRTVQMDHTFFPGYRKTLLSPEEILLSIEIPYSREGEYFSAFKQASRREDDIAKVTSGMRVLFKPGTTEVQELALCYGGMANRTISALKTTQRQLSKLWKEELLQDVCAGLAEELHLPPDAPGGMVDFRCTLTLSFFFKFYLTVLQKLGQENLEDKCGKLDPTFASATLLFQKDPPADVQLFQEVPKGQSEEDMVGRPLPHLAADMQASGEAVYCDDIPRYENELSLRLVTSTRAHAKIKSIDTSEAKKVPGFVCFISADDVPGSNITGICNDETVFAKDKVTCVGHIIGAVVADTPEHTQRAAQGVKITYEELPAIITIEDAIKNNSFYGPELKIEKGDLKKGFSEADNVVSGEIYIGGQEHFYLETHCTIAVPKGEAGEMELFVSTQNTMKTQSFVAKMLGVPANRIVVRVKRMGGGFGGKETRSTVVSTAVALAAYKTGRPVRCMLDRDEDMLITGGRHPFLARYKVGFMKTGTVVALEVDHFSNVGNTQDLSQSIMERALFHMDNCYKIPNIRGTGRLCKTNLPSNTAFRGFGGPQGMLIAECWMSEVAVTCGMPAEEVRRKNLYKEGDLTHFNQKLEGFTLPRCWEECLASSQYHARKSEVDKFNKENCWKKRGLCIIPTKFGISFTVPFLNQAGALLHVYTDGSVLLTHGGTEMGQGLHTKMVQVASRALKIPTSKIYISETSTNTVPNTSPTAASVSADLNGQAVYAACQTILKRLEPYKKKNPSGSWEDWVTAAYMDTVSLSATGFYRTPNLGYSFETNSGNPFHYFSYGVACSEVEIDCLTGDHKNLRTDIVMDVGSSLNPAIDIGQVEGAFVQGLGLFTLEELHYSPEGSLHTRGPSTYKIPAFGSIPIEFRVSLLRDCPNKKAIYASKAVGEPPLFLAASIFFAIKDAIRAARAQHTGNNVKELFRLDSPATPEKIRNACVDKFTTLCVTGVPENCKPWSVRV

SMILES | pIC50 | IC50 | Xanthine oxidase inhibition, verbal rating
CSc1nc(O)c(C(=O)Nc2ccc(-c3c[nH]nn3)cc2OC(F)(F)F)c(=O)[nH]1 [Formula (II3), N-(4-(1H-1,2,3-triazol-4-yl)-2-(trifluoromethoxy)phenyl)-4-hydroxy-2-(methylthio)-6-oxo-1,6-dihydropyrimidine-5-carboxamide] | 7.22 |  | 
CSc1nc(O)c(C(=O)Nc2ccc(-c3c[nH]nn3)cc2OC(F)F)c(=O)[nH]1 [Formula (II4), N-(2-(difluoromethoxy)-4-(1H-1,2,3-triazol-4-yl)phenyl)-4-hydroxy-2-(methylthio)-6-oxo-1,6-dihydropyrimidine-5-carboxamide] | 7.22 |  | 
CSc1nc(O)c(C(=O)Nc2ccc(-c3c[nH]nn3)cc2C#N)c(=O)[nH]1 [Formula (II5), N-(2-cyano-4-(1H-1,2,3-triazol-4-yl)phenyl)-4-hydroxy-2-(methylthio)-6-oxo-1,6-dihydropyrimidine-5-carboxamide] | 7.40 |  | 
CSc1nc(O)c(C(=O)Nc2ccc(-c3c[nH]nn3)c(C(F)(F)F)c2)c(=O)[nH]1 [Formula (II6), N-(4-(1H-1,2,3-Triazol-4-yl)-3-(trifluoromethyl)phenyl)-4-hydroxy-2-(methylthio)-6-oxo-1,6-dihydropyrimidine-5-carboxamide] |  | > 10000 nM | 
CC(C)Sc1nc(O)c(C(=O)Nc2ccc(-c3c[nH]nn3)cc2C(F)(F)F)c(=O)[nH]1 [Formula (II7), N-(4-(1H-1,2,3-Triazol-5-yl)-2-(trifluoromethyl)phenyl)-4-hydroxy-2-(isopropyl-thio)-6-oxo-1,6-dihydropyrimidine-5-carboxamide] | 7.15 |  | 
CSc1nc(O)c(C(=O)Nc2ncc(-c3c[nH]nn3)cc2C(F)(F)F)c(=O)[nH]1 [Formula (II8), N-(5-(1H-1,2,3-triazol-4-yl)-3-(trifluoromethyl)pyridin-2-yl)-4-hydroxy-2-(methylthio)-6-oxo-1,6-dihydropyrimidine-5-carboxamide] | 7.22 |  | 
CSc1nc(O)c(C(=O)Nc2ccc3nc(-c4c[nH]nn4)ccc3c2)c(=O)[nH]1 [Formula (II10), N-(2-(1H-1,2,3-triazol-4-yl)quinolin-6-yl)-4-hydroxy-2-(methylthio)-6-oxo-1,6-dihydropyrimidine-5-carboxamide] | 6.72 |  | 
CSc1nc(O)c(C(=O)Nc2ccc(-c3c[nH]nn3)c(F)c2F)c(=O)[nH]1 [Formula (IIaa), N-(2,3-difluoro-4-(1H-1,2,3-triazol-4-yl)phenyl)-4,6-dihydroxy-2-(methylthio) pyrimidine-5-carboxamide] | 6.99 |  | 
CN(C)CCSc1nc(O)c(C(=O)Nc2ccc(-c3c[nH]nn3)cc2F)c(=O)[nH]1 [Formula (IIbb), 2-((2-(dimethylamino)ethyl)thio)-N-(2-fluoro-4-(1H-1,2,3-triazol-4-yl)phenyl)-4-hydroxy-6-oxo-1,6-dihydropyrimidine-5-carboxamide] | 6.69 |  | 
CC(C)Sc1nc(O)c(C(=O)Nc2ccc(-c3c[nH]nn3)cc2)c(=O)[nH]1 [Formula (IIi), N-(4-(1H-1,2,3-triazol-5-yl)phenyl)-4-hydroxy-2-(isopropylthio)-6-oxo-1,6-dihydropyrimidine-5-carboxamide] |  | < 20 nM | particularly potent inhibitors of xanthine oxidase compared to allopurinol
CSc1nc(O)c(C(=O)Nc2ccc(-c3c[nH]nn3)nc2)c(=O)[nH]1 [Formula (IIii), N-(6-(1H-1,2,3-triazol-4-yl)pyridin-3-yl)-4-hydroxy-2-(methylthio)-6-oxo-1,6-dihydropyrimidine-5-carboxamide] | 6.42 |  | particularly potent inhibitors of xanthine oxidase compared to allopurinol
O=C(Nc1ccc(-c2c[nH]nn2)cc1)c1c(O)nc(SC(F)(F)F)[nH]c1=O [Formula (IIj)] |  | > 300000 nM | 
CCSc1nc(O)c(C(=O)Nc2ccc(-c3c[nH]nn3)cc2)c(=O)[nH]1 [Formula (IIl), N-(4-(1H-1,2,3-triazol-4-yl)phenyl)-2-(ethylthio)-4-hydroxy-6-oxo-1,6-dihydropyrimidine-5-carboxamide] |  | < 20 nM | particularly potent inhibitors of xanthine oxidase compared to allopurinol
O=C(Nc1ccc(-c2c[nH]nn2)cc1)c1c(O)nc(SCC2CC2)[nH]c1=O [Formula (IIo), N-(4-(1H-1,2,3-triazol-4-yl)phenyl)-2-((cyclopropylmethyl)thio)-4,6-dioxo-1,4,5,6-tetrahydropyrimidine-5-carboxamide] | 5.94 |  | 
CCSc1nc(O)c(C(=O)Nc2ccc(-c3nn[nH]n3)cc2)c(=O)[nH]1 [Formula (IIp), N-(4-(1H-tetrazol-5-yl)phenyl)-2-(ethylthio)-4-hydroxy-6-oxo-1,6-dihydropyrimidine-5-carboxamide] | 6.70 |  | particularly potent inhibitors of xanthine oxidase compared to allopurinol
CC(C)CSc1nc(O)c(C(=O)Nc2ccc(-c3c[nH]nn3)cc2)c(=O)[nH]1 [Formula (IIq), N-(4-(1H-1,2,3-triazol-4-yl)phenyl)-4-hydroxy-2-(isobutylthio)-6-oxo-1,6-dihydropyrimidine-5-carboxamide] | 7.40 |  | particularly potent inhibitors of xanthine oxidase compared to allopurinol
CSc1nc(O)c(C(=O)Nc2ccc(-c3c[nH]nn3)c(F)c2)c(=O)[nH]1 [Formula (IIr), N-(3-Fluoro-4-(1H-1,2,3-triazol-4-yl)phenyl)-4-hydroxy-2-(methylthio)-6-oxo-1,6-dihydropyrimidine-5-carboxamide] | 6.68 |  | particularly potent inhibitors of xanthine oxidase compared to allopurinol
CSc1nc(O)c(C(=O)Nc2ccc(-c3c[nH]nn3)cc2F)c(=O)[nH]1 [Formula (IIs), N-(2-Fluoro-4-(1H-1,2,3-triazol-4-yl)phenyl)-4-hydroxy-2-(methylthio)-6-oxo-1,6-dihydropyrimidine-5-carboxamide] | 6.92 |  | particularly potent inhibitors of xanthine oxidase compared to allopurinol
CSc1nc(O)c(C(=O)Nc2c(F)cc(-c3c[nH]nn3)cc2F)c(=O)[nH]1 [Formula (IIt), N-(2,6-Difluoro-4-(1H-1,2,3-triazol-4-yl)phenyl)-4-hydroxy-2-(methylthio)-6-oxo-1,6-dihydropyrimidine-5-carboxamide] | 6.74 |  | particularly potent inhibitors of xanthine oxidase compared to allopurinol
CC(C)Sc1nc(O)c(C(=O)Nc2ccc(-c3c[nH]nn3)cc2F)c(=O)[nH]1 [Formula (IIv), N-(2-Fluoro-4-(1H-1,2,3-triazol-4-yl)phenyl)-4-hydroxy-2-(isopropylthio)-6-oxo-1,6-dihydropyrimidine-5-carboxamide] | 7.00 |  | 
CC(C)Sc1nc(O)c(C(=O)Nc2ccc(-c3c[nH]nn3)c(F)c2)c(=O)[nH]1 [Formula (IIw), N-(3-Fluoro-4-(1H-1,2,3-triazol-4-yl)phenyl)-4-hydroxy-2-(isopropylthio)-6-oxo-1,6-dihydropyrimidine-5-carboxamide] | 6.18 |  | 
O=C(Nc1ncc(-c2c[nH]nn2)s1)c1c(O)[nH]c(=O)[nH]c1=O [Formula (Io), N-(5-(1H-1,2,3-Triazol-4-yl)thiazol-2-yl)-2,4,6-trihydroxypyrimidine-5-carboxamide] | 5.28 |  | 
